Measurements reported in patent US8431611B2, “Artemisinin derivatives” (Johns Hopkins University, priority 2006, dated 2013).
Converted amounts (≈) assume the structure as drawn. “Also recorded” adds a separate entry of the source. Where two headings read alike, the source gives them in different places.

Key:
[1] = system: T. gondii strain 2F; experiment: In vitro inhibition of T. gondii (growth inhibition assay); format: cell-based, Toxoplasma gondii; details: for antitoxoplasma inhibitory activity (growth inhibition assay): in words
Experimental: (§1) Normal human foreskin fibroblasts (American Type Culture Collection, Manassas, Va.) were used to grow tachyzoites and to test compounds for activity and cytotoxicity. Cells were maintained in Dulbecco's modified Eagle medium (Gibco, Grand Island, N.Y.) containing 10% fetal bovine serum (Atlas Biologicals, Fort Collins, Colo.), 25 mM HEPES (Gibco), 2 mM L-glutamine, 50 units of penicillin G per ml, and 50 μg of streptomycin sulfate per ml. A culture of the tachyzoites of T. gondii strain 2F, which constitutively expresses cytoplasmic β-galactosidase and is derived from strain RH (5), was a gift from Vern Carruthers, University of Michigan Medical School.
(§2) The compounds were tested for in vitro efficacy against T. gondii and cytotoxicity by previously published methods (9, 10). The median inhibitory dose (50% inhibitory dose [ID50]) and the median cytotoxic dose (50% toxic dose [TD50]) were calculated by extrapolation of the corresponding dose-response curve on a log-linear plot employing the portions of the curve that transected the 50% response point. For each compound, a therapeutic index (TI) was calculated by the formula TI=TD50/ID50.
(§3) Artemisinin was obtained from Holley Pharmaceuticals Co., Inc., Fullerton, Calif. Artemether was generously donated by Huiling Wang, University of Wuhan, China. Trimethoprim was purchased from Sigma Chemical Co. (St. Louis, Mo.). Chlorophenol red-β-D-galactopyranoside (Roche, Indianapolis, Ind.), 100 mM in 100 mM HEPES (pH 7.2), was stored frozen at −80° C. CellTiter 96 AQueous One Solution Reagent for determining cytotoxicity was purchased from Promega Corp., Madison, Wis.

[2] = system: Normal human foreskin fibroblasts; format: cell-based
Experimental: as §1, §2, §3

[3] = system: T. gondii tachyzoites; experiment: Replication inhibition assay; format: cell-based, Toxoplasma gondii; details: 10 μg/ml added 2 hours after infection of HFF cells, 26 hours; FIG. 2
Experimental: (§4) FIG. 2 illustrates the replication inhibition assay. T. gondii tachyzoites are allowed to infect HFF cells for 2 hours. Following this, compounds are added to the cells for a final concentration of 10 μg/ml and the infection is allowed to progress for 26 hours. Data are compiled from ten randomly selected fields wherein number of vacuoles and number of parasites within the vacuoles are enumerated. Control represents no drug added.
as §4, with “assay (14).” for “assay.”

[4] = system: T. gondii tachyzoites; experiment: Quantification of invasion using red/green assay (attachment/penetration); format: cell-based, Toxoplasma gondii; details: 10 μg/ml (range 25-34 μM); FIG. 1
Experimental: (§5) FIG. 1 illustrates the quantification of invasion using red/green assay. Green bars represent internal/penetrated parasites while red bars depict external/attached parasites. Compounds were tested at 10 μg/ml (range 25-34 μM). BAPTA-AM (20 μM) and cytochalasin D (Cyt D, 2 μM) were included as positive controls for inhibition of attachment or penetration, respectively. Data are mean values±SEM of three independent experiments, counting ten random fields for each sample.
as §5, with “red/green assay (8). Black” for “red/green assay. Green”, “while gray” for “while red”

[5] = system: chloroquine-sensitive Plasmodium falciparum (NF 54); experiment: Inhibition of replication of malaria parasites; format: cell-based; details: unpublished data of J. D'Angelo and G. Posner
[6] = Table 1, T. gondii in human foreskin fibroblasts
[7] = Toxoplasma gondii, Fibroblast, Table 1, T. gondii in human foreskin fibroblasts, read-out: ID50 (the source's name)
[8] = Toxoplasma gondii, Table 2, average of three independent experiments, read-out: ID50 (the source's name)
[9] = Toxoplasma gondii, summary of Table 1, read-out: concentration inhibiting toxoplasma replication
[10] = Table 1, T. gondii in human foreskin fibroblasts, read-out: ID50 (the source's name)
[11] = Table 2, average of three independent experiments, read-out: ID50 (the source's name)

CO[C@H]1O[C@@H]2O[C@@]3(C)CC[C@H]4[C@H](C)CC[C@@H]([C@H]1C)[C@@]24OO3 [Artemether, reference compound]
ID50 [1, 6]: 0.2 mg/L (≈ 0.67 µM)
IC50 [1, 7]: 0.7 µM
IC50 [1, 8]: 0.37 µM
IC50 [1, 9]: < 1 mg/L
concentration of 50% cytotoxicity (TD50) ([2]; human): > 160 µg/mL

C[C@@H]1CC[C@H]2[C@@H](C)C(=O)O[C@@H]3O[C@@]4(C)CC[C@@H]1[C@]32OO4 [Artemisinin]
inhibition of T. gondii replication [3]: ineffective
ID50 [1, 6]: 2.3 mg/L (≈ 8.15 µM)
IC50 [1, 7]: 8 µM
IC50 [1, 9]: 2 to 3 mg/L
inhibition of attachment of T. gondii tachyzoites to HFF cells [4]: exception

C[C@H]1[C@@H](CCCO)O[C@@H]2O[C@]3(C)CC[C@H]4[C@H](C)CC[C@@H]1[C@@]24OO3 [Compound 2a, ART-PrOH]
ID50 [1, 6]: 2.7 mg/L (≈ 8.27 µM)
IC50 [1, 7]: 8.3 µM
IC50 [1, 9]: 2 to 3 mg/L

CC1CCC2C(C)C(CCCOC(=O)c3ccccc3)OC3OC4(C)CCC1C32OO4 (stereo not drawn) [Compound 2b]
ID50 [1, 6]: 0.6 mg/L (≈ 1.39 µM)
IC50 [1, 10]: 1.4 µM

CC1CCC2C(C)C(CCCOC(=O)c3ccccc3Br)OC3OC4(C)CCC1C32OO4 (stereo not drawn) [Compound 2c]
ID50 [1, 6]: 0.6 mg/L (≈ 1.18 µM)
IC50 [1, 10]: 1.2 µM

CC(C)=CCCC(C)CCOCCCC1OC2OC3(C)CCC4C(C)CCC(C1C)C24OO3 (stereo not drawn) [Compound 2d]
ID50 [1, 6]: 0.5 mg/L (≈ 1.08 µM)
IC50 [1, 10]: 1.1 µM
concentration of 50% cytotoxicity (TD50) [2]: > 160 µg/mL

CC1=C(c2nccs2)OC2OC3(C)CCC4C(C)CCC1C24OO3 (stereo not drawn) [Compound 3a, DART-Thiaz]
inhibition of T. gondii replication [3]: moderate inhibition
IC50 [1, 11]: 1.7 µM

CC1=C(c2nc3ccccc3s2)OC2OC3(C)CCC4C(C)CCC1C24OO3 (stereo not drawn) [Compound 3b, DART-Benzothiazole]
inhibition of T. gondii replication [3]: quite effective
IC50 [1, 11]: 1 µM

CC1=C(C=O)OC(C)C1C (stereo not drawn) [Compound 3c, DART-ald]
inhibition of T. gondii replication [3]: quite effective
IC50 [1, 8]: 1 µM

CC1=C(C(=O)O)OC(C)C1C (stereo not drawn) [Compound 3d, DART-C(O)—OH]
inhibition of T. gondii replication [3]: ineffective
IC50 [1, 8]: 40.3 µM

COC(=O)C1=C(C)C(C)C(C)O1 (stereo not drawn) [Compound 3e, DART-C(O)—OMe]
inhibition of T. gondii replication [3]: moderate inhibition
IC50 [1, 8]: 2.9 µM
concentration of 50% cytotoxicity (TD50) ([2]; human): > 160 µg/mL

CCNC(=O)C1=C(C)C(C)C(C)O1 (stereo not drawn) [Compound 3f, DART-C(O)—NHEt]
inhibition of T. gondii replication [3]: moderate inhibition
IC50 [1, 8]: 4.4 µM
inhibition of attachment of T. gondii tachyzoites to HFF cells [4]: exception

C[C@H]1[C@@H](CCCO)O[C@@H]2O[C@]3(C)CC[C@H]4[C@H](C)CC[C@@H]1[C@@]24O3 [Deoxy-2a, Deoxy-ART-PrOH]
ID50 [1, 6]: 173 mg/L (≈ 557 µM)
IC50 [1, 7]: 560 µM
antitoxoplasma inhibitory activity (growth inhibition assay) [1]: virtually no inhibitory activity; also recorded: devoid of antitoxoplasma activity
antimalaria activity [5]: virtually no antimalaria activity

CC1=C(c2nccs2)OC2O[C@]3(C)CC[C@H]4[C@H](C)CC[C@@H]1[C@@]24O3 (stereo partly drawn) [Deoxy-3a, deoxy-DART-thiaz]
inhibition of T. gondii replication [3]: ineffective
IC50 [1, 8]: 960 µM
antitoxoplasma inhibitory activity (growth inhibition assay) [1]: little or no efficacy; also recorded: devoid of antitoxoplasma activity
antimalaria activity [5]: virtually no antimalaria activity
inhibition of attachment of T. gondii tachyzoites to HFF cells [4]: effective in inhibition of attachment

COc1cc(Cc2cnc(N)nc2N)cc(OC)c1OC [Trimethoprim, reference compound]
ID50 [1, 6]: 5.2 mg/L (≈ 17.9 µM)
IC50 ([1]; Toxoplasma gondii, Fibroblast, read-out: ID50): 17.9 µM
IC50 ([1]; Toxoplasma gondii, read-out: ID50): 19 µM
IC50 ([1]; Toxoplasma gondii, read-out: concentration inhibiting toxoplasma replication): 5.2 mg/L
concentration of 50% cytotoxicity (TD50) ([2]; human): 60 µg/mL
